Data taken from patent US20060004088A1, “Furan derivatives for preventing and curing osteoporosis and pharmaceutical compositions containing the same” (OCT INC., priority 2002, published 2006).

Tested on: osteoclast pregenitor cells
Test: Inhibition rates of furan derivatives versus osteoclast formation (TRAP staining)
Format: cell-based, mice
Details: TRAP-positive multinucleated cells, untreated control set as 100%
Procedure: First, bone marrow cells were isolated, as follow. After sacrificing 7-9 week female mice by cervical dislocation, femur and tibia were excised aseptically while removing attached soft tissues. After cutting both ends of long bones, 1 ml of an enzyme solution, containing 0.1% collagenase (Gibco), 0.05% trypsin and 0.5 mM EDTA (Gibco), was injected to the bone marrow cavity at one end using a syringe with a 26-guage needle, and bone marrow was then collected. After shaking the recovered bone marrow for 30 min, bone marrow cells were collected, and cultured in α-minimum essential medium (α-MEM) supplemented with 10% FBS for 24 hrs. Then, non-adherent cells were collected, which are osteoclast pregenitors, aliquotted onto culture plates at a density of 2×10^5 cells per well, and cultured for 8 days in α-MEM supplemented with 20 ng/ml of macrophage-colony stimulating factor (M-CSF, Peprotech, USA) and 30 ng/ml RANKL (Peprotech, USA). During the 8 days of culturing, the cells were treated with the Compound 1. Thereafter, osteoclast formation was investigated by fixing the cultured cells and then carrying out TRAP staining, as described in the following Experimental Example 2.2. In addition, resorption activity of osteoclasts was investigated by measuring the absorption area after removing osteoclasts in cultures in calcium phosphate-coated plates, as described in Experimental Example 2.3, below.
After cell culture, the adherent cells were washed with PBS, and TRAP staining was performed, as follows. After being fixed with citrate-acetate-formaldehyde for 5 min, the cells were incubated for 1 hr in acetate buffer (prewarmed at 37° C., pH 5.0) containing naphthol AS-BI phosphate, fast Garnet GBC and 7 mM tartrate buffer (pH 5.0). TRAP-positive multinucleated cells having 3 or more nuclei were considered as osteoclasts.
Osteoclast pregenitor cells were isolated, and their differentiation to mature osteoclasts was induced, according to the same method as in the Experimental Example 2-1, while treated with each of the furan derivatives of the present invention. According to the same method as in the Experimental Example 2-2, TRAP staining performed, and TRAP-positive multinucleated cells were counted. An inhibition rate of each furan derivative against osteoclast formation was expressed as percentage, wherein the number of stained cells in a control not treated the furan derivative was arbitrarily set as 100% (Tables 14 to 16).

Row | SMILES | Inhibition rate against osteoclast formation, % (0.1 μM) | Inhibition rate against osteoclast formation, % (1 μM) | Inhibition rate against osteoclast formation, % (10 μM)
1 | O=C(O)c1ccc(COc2cccc(Cl)c2)o1 [Compound 112] | 0% | 0% | 7.79%
2 | CC(C)c1ccc(OCc2ccc(C(=O)O)o2)cc1 [Compound 114] | 0% | 0% | 4.2%
3 | O=C(O)c1ccc(COc2cccc3ccccc23)o1 [Compound 117] | 0% | 0% | 5.86%
4 | Cc1cc(OCc2ccc(C(=O)O)o2)ccc1Cl [Compound 119] | 0% | 0% | 37.02%
5 | O=C(O)c1ccc(CSCc2ccccc2)o1 [Compound 120] | 0% | 0% | 27.99%
6 | CCC(C)NC(=O)c1ccc(COc2ccc(I)cc2)o1 (stereo not drawn) [Compound 121] | 0% | 0% | 7.12%
7 | CCN(CC)C(=O)c1ccc(COc2ccc(Cl)c(C)c2)o1 [Compound 123] | 0% | 6.9% | 100%
8 | CC1CCN(C(=O)c2ccc(COc3cc(Cl)ccc3Cl)o2)CC1 [Compound 124] | 0% | 0% | 7.62%
9 | CC(C)(C)NC(=O)c1ccc(COCC(F)(F)F)o1 [Compound 127] | 0% | 0% | 13.82%
10 | O=C(c1ccc(COc2ccccc2Br)o1)N1CCCCCC1 [Compound 128] | 6.54% | 0% | 97.65%
11 | CC(C)(C)NC(=O)c1ccc(COc2ccccc2Br)o1 [Compound 129] | 0% | 0% | 2.2%
12 | CC(C)NC(=O)c1ccc(CNc2cc(Cl)ccc2Cl)o1 [Compound 130] | 0% | 0% | 7.84%
13 | Cc1cc(OCc2ccc(C(=O)N3CCOCC3)o2)ccc1Cl [Compound 132] | 0% | 0% | 62.30%
14 | O=C(c1ccc(COc2cc(Cl)ccc2Cl)o1)N1CCCCCC1 [Compound 133] | 0% | 0% | 0.5%
15 | CC(C)(C)c1ccc(OCc2ccc(C(=O)NC3CCCCC3)o2)cc1 [Compound 134] | 0% | 0% | 21.42%
16 | CC(C)(C)c1ccc(OCc2ccc(C(=O)Nc3ccccc3)o2)cc1 [Compound 136] | 0% | 0% | 2.49%
17 | O=C(Nc1ccccc1)c1ccc(COc2ccc3ccccc3c2)o1 [Compound 137] | 0% | 0% | 38.3%
18 | O=C(Nc1cccc(Br)c1)c1ccc(COc2ccc(F)cc2)o1 [Compound 140] | 0% | 0% | 11.93%
19 | O=C(Nc1ccc(F)cc1)c1ccc(COc2cccc(Cl)c2)o1 [Compound 141] | 0% | 0% | 13.01%
20 | COc1ccc(NC(=O)c2ccc(COc3ccccc3Cl)o2)cc1Cl [Compound 142] | 0% | 0% | 32.17%

Row | SMILES | Inhibition rate against osteoclast formation, % (0.1 μM) | Inhibition rate against osteoclast formation, % (1 μM) | Inhibition rate against osteoclast formation, % (10 μM)
21 | O=C(Nc1ccc(F)c(F)c1)c1ccc(COc2ccc(I)cc2)o1 [Compound 143] | 0% | 0% | 10.63%
22 | CCOc1ccccc1NC(=O)c1ccc(COc2ccc(Cl)cc2[N+](=O)[O-])o1 [Compound 144] | 0% | 21.95% | 85.25%
23 | COc1ccc(NC(=O)c2ccc(COc3cc(Cl)ccc3Cl)o2)c(OC)c1 [Compound 145] | 0% | 5.98% | 83.3%
24 | O=C(Nc1ccc(Br)cc1)c1ccc(COc2ccc(I)cc2)o1 [Compound 146] | 0% | 0% | 10.03%
25 | Cc1ccc(OCc2ccc(C(=O)Nc3ccc(F)cc3)o2)c([N+](=O)[O-])c1 [Compound 147] | 6.11% | 19.4% | 99.72%
26 | NC(=O)c1ccc(NC(=O)c2ccc(COc3cc(Cl)ccc3Cl)o2)cc1 [Compound 148] | 0% | 3.05% | 47.55%
27 | COc1ccc(NC(=O)c2ccc(COc3ccc(F)cc3)o2)c([N+](=O)[O-])c1 [Compound 149] | 0% | 10.32% | 78.34%
28 | COc1ccc(NC(=O)c2ccc(COc3ccc(Cl)c(C)c3)o2)cc1 [Compound 150] | 0% | 0% | 19.12%
29 | O=C(Nc1cc(F)ccc1F)c1ccc(COc2cccc(Cl)c2)o1 [Compound 151] | 0% | 0% | 19.8%
30 | COC(=O)c1ccc(C)c(NC(=O)c2ccc(COc3ccc(I)cc3)o2)c1 [Compound 152] | 5.37% | 0.08% | 37.56%
31 | Cc1ccc(F)c(NC(=O)c2ccc(COc3ccc(C)cc3[N+](=O)[O-])o2)c1 [Compound 155] | 0% | 0% | 27.92%
32 | O=C(Nc1cccc(Cl)c1Cl)c1ccc(COc2ccccc2[N+](=O)[O-])o1 [Compound 156] | 13.01% | 18.26% | 98.48%
33 | COc1ccccc1NC(=O)c1ccc(COc2cc(C)ccc2C)o1 [Compound 157] | 4.87% | 10.71% | 97.46%
34 | Cc1ccc(F)c(NC(=O)c2ccc(COc3ccccc3[N+](=O)[O-])o2)c1 [Compound 158] | 0% | 0% | 23.57%
35 | CC(=O)c1ccc(NC(=O)c2ccc(COc3cccc4ccccc34)o2)cc1 [Compound 160] | 0% | 0% | 38.96%
36 | O=C(Nc1cc(F)ccc1F)c1ccc(COc2ccccc2Cl)o1 [Compound 161] | 0% | 0% | 11.33%
37 | CCc1cccc(NC(=O)c2ccc(COc3ccc(F)cc3)o2)c1 [Compound 163] | 0% | 0% | 51.2%
38 | CCCc1ccc(OCc2ccc(C(=O)Nc3ccc(OC)c(OC)c3)o2)cc1 [Compound 164] | 0% | 0% | 30.52%
39 | CCOc1ccc(OCc2ccc(C(=O)NC(C)(C)C)o2)cc1 [Compound 165] | 12.35% | 28.76% | 88.75%
